Results from patent US20240309003A1, “HETEROCYCLIC COMPOUNDS AS TRIGGERING RECEPTOR EXPRESSED ON MYELOID CELLS 2 AGONISTS AND METHODS OF USE” (Vigil Neuroscience, Inc., priority 2021, published 2024).

Each molecule was assayed against T1, human TREM2 (Homo sapiens, UniProt Q9NZC2) (assay: TREM2 agonist potency by cellular phosphorylation of Syk (AlphaLisa) in HEK293T-hTREM2 cells). Conditions: HEK293 cells expressing human TREM2 and DAP12, Table D.
T1 construct: expressed in transfected cells; host or cells: HEK293T
T1 sequence (Q9NZC2 19-230): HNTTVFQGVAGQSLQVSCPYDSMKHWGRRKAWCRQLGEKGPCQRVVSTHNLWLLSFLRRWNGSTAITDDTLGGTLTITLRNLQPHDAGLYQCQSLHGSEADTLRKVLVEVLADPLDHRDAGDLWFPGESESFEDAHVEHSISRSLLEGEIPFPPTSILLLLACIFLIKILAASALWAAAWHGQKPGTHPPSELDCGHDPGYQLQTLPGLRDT
T1 sequence (O43914 22-113 partner): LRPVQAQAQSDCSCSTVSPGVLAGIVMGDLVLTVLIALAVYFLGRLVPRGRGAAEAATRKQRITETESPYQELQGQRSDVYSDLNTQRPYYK
Format: cell-based
Outline: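 Agonist EC50 from a variable-slope four-parameter fit of % activation, based on AlphaLisa phospho-Syk levels in lysates. Cells: HEK293T-hTREM2 (with DAP12), treated 45 min at room temperature with compound in assay buffer.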

Row | Structure (SMILES) | EC50
1 | Cc1cnc2c(-c3ccc(F)cc3F)nc(N3C[C@@H](c4cnn(C5CC5)c4)O[C@@H](C)C3)nc2n1 [Example 114, (2R,6S)-2-(1-cyclopropyl-1H-pyrazol-4-yl)-4-(4-(2,4-difluorophenyl)-7-methylpteridin-2-yl)-6-methylmorpholine] | 50 to 500 nM
2 | Cc1nc2nc([C@@H]3CCO[C@H](c4cnn(C5CC5)n4)C3)nc(-c3ccc(F)cc3F)c2nc1C [Example 154, 2-((2S,4R)-2-(2-cyclopropyl-2H-1,2,3-triazol-4-yl)tetrahydro-2H-pyran-4-yl)-4-(2,4-difluorophenyl)-6,7-dimethylpteridine] | 50 to 500 nM
3 | [2H]C1([2H])C[C@H](c2nc(-c3ccc(Cl)cc3F)c3nc(C)c(C)nc3n2)C[C@]([2H])(c2cnn(C3CC3)c2)O1 [Example 192, 4-(4-chloro-2-fluorophenyl)-2-((2R,4S)-2-(1-cyclopropyl-1H-pyrazol-4-yl)tetrahydro-2H-pyran-4-yl-2,6,6-d3)-6,7-dimethylpteridine] | < 50 nM
4 | Cc1nc2nc([C@@H]3CCO[C@H](c4cccn(C)c4=O)C3)nc(-c3ccc(F)cc3F)c2nc1C [Example 204] | 500 to 3000 nM
5 | Cc1nc2nc(N3CCO[C@@H](c4cnn(C5CC5)c4)C3)nc(-c3ccc4c(c3)CC4)c2nc1C [Example 240, (S)-4-(4-(bicyclo[4.2.0]octa-1,3,5-trien-3-yl)-6,7-dimethylpteridin-2-yl)-2-(1-cyclopropyl-1H-pyrazol-4-yl)morpholine] | 50 to 500 nM
6 | Cc1cc([C@@H]2C[C@H](c3cc4nc(C)c(C)cc4c(-c4ccc(F)cc4F)n3)CCO2)ccn1 [Example 226, 5-(2,4-difluorophenyl)-2,3-dimethyl-7-((2S,4R)-2-(2-methylpyridin-4-yl)tetrahydro-2H-pyran-4-yl)-1,6-naphthyridine] | 500 to 3000 nM
7 | Cc1cc2c(-c3ccc(Cl)cc3F)nc([C@@H]3CCO[C@@H](c4cnn(C5CC5)c4)C3)nc2nc1C [Example 216, 4-(4-chloro-2-fluorophenyl)-2-((2R,4R)-2-(1-cyclopropyl-1H-pyrazol-4-yl)tetrahydro-2H-pyran-4-yl)-6,7-dimethylpyrido[2,3-d]pyrimidine] | < 50 nM

Same assay, conditions: HEK293 cells expressing human TREM2 and DAP12, Table D-2

Row | Structure (SMILES) | EC50
8 | Cc1nc2nc([C@H]3CCO[C@@H](c4cnn(C5CC5)c4)C3)nc(-c3ccc(C(F)F)cc3F)c2nc1C [Example I-1216, 2-[(2R,4S)-2-(1-cyclopropylpyrazol-4-yl)tetrahydropyran-4-yl]-4-[4-(difluoromethyl)-2-fluoro-phenyl]-6,7-dimethyl-pteridine] | < 50 nM
9 | Cc1nc2nc(N3C[C@@H](c4cnn(C5CC5)c4)O[C@@H](C(F)F)C3)nc(-c3ccc(C(F)(F)F)cc3F)c2nc1C [Example I-1638, (2R,6R)-2-(1-cyclopropylpyrazol-4-yl)-6-(difluoromethyl)-4-[4-[2-fluoro-4-(trifluoromethyl)phenyl]-6,7-dimethyl-pteridin-2-yl]morpholine] | < 50 nM
10 | Cc1nc2nc(N3C[C@@H](C)O[C@@H](c4cnn(CCO)c4)C3)nc(-c3ccc(Cl)cc3F)c2nc1C [Example I-1686, 2-(4-((2S,6R)-4-(4-(4-chloro-2-fluorophenyl)-6,7-dimethylpteridin-2-yl)-6-methylmorpholin-2-yl)-1H-pyrazol-1-yl)ethan-1-ol] | < 50 nM
11 | Cc1nc2nc(N3C[C@@H](c4cnn(C(F)F)c4)O[C@@H](C4CC4)C3)nc(-c3ccc(F)cc3F)c2nc1C (stereo in doubt) [Example I-1701, (2S,6R)-2-cyclopropyl-6-[1-(difluoromethyl)pyrazol-4-yl]-4-[4-(2,4-difluorophenyl)-6,7-dimethyl-pteridin-2-yl]morpholine] | < 50 nM
12 | Cc1nc2nc(N3C[C@@H](C)O[C@@H](c4cnn(C(F)F)c4)C3)nc(-c3ccc(F)cc3F)c2nc1C [Example I-1472, (2S,6R)-2-[1-(difluoromethyl)pyrazol-4-yl]-4-[4-(2,4-difluorophenyl)-6,7-dimethyl-pteridin-2-yl]-6-methyl-morpholine] | < 50 nM
